Read-outs that look alike come from different tables or passages of the source.
How the values were obtained:
Assay type in all cases: cell-based
[1] = tested on: T47D cells expressing mutant PI3Ka (H1047R); assay: In vitro cell proliferation, T47D cells (CellTiter-Glo); conditions: inhibition of proliferation, 72 hours, read-out: Avg T-47D EC50
Description: (§1) In Vitro Cell Proliferation: Determination of EC50 Values for Inhibition of Proliferation in T47D Cells Expressing Mutant PI3Ka (H1047R) Mutation and SKBR3 Cells Express WT PI3Ka.
(§2) T47D or SKBR3 cells were trypsinized, resuspended in culture media and seeded onto assay ready plates. T47D culture media consisted of RPMI, 10% FBS and Insulin (0.2 units/mL). SKBR3 culture media consisted of McCoys 5a and 10% FBS. Cells were seeded at a density of 1,500 cells/well and dispensed in 50 μl onto 384 well assay ready plates (Corning, 89089-790). Assay ready plates had previously been stamped with 10-point dilutions of compounds of interest, as well as controls. The Echo655 is used to stamp plates at 40 nL of compound or DMSO. Cells were grown for 72 hours at 37° Celsius and 5% CO2. After 72 hours, cells were equilibrated at room temperature for 15 minutes. 30 μL of CellTiter-Glo reagent is added to the plate, which is then shaken for 30 minutes at temperature at 300-500 rpm. Cells are then read on an Envision plate reader. The percentage of inhibition of proliferation was calculated using the following formula: % Inhibition=100×(LumD−Lumsample)/(LumD−Lumlnh), where D is obtained from cells treated with 0.1% DMSO only; lnh is obtained from cells treated with 10 uM Alpelisib. The effective concentration achieving 50% inhibition of proliferation (EC50) is calculated by fitting the Curve using Xlfit (v5.3.1.3), equation 201: Y=Bottom+(Top−Bottom)/(1+10^((LogEC50−X)*HillSlope)).

[2] = tested on: SKBR3 cells express WT PI3Ka; assay: In vitro cell proliferation, SKBR3 cells (CellTiter-Glo); conditions: inhibition of proliferation
Description: as §1, §2

[3] = tested on: phosphorylation of AKT (pAKT) in T47D cells expressing mutant PI3Ka (H1047R); assay: In vitro cell pAKT (Ser473) HTRF, T47D cells; conditions: cellular pAKT, T47D cells, mutant PI3Ka (H1047R), 6 hours, read-out: Avg T-47D IC50
Description: (§3) In Vitro Cell pAKT: Determination of IC50 Values for Inhibition of Phosphorylation of AKT (pAKT) in T47D Cells Expressing Mutant PI3Ka (H1047R) Mutation and SKBR3 Cells Express WT PI3Ka.
(§4) T47D or SKBR3 cells were trypsinized, resuspended in culture media and seeded onto assay ready plates. T47D culture media consisted of RPMI, 10% FBS and Insulin (0.2 units/mL). SKBR3 culture media consisted of McCoy's 5a and 10% FBS. Cells were seeded at a density of 5000 cells/well and dispensed in 12.5 μL onto 384 well assay ready plates (Perkin Elmer, 6008238)). Assay ready plates had previously been stamped with 10-point dilutions of compounds of interest, as well as controls. The Echo655 is used to stamp plates at 12.5 nL of compound or DMSO. Cells were grown for 6 hours at 37° Celsius and 5% CO2. After 6 hours, 4 μL of Lysis buffer reagent was added to the plate, which was then centrifuged for 1 minute at 1000 rpm. Then the plate was incubated at room temperature for 30 minutes. After 30 minutes, 4 μL of antibody mix containing Eu Cryptate, d2 Cryptate, and detection buffer, was added to the plate. The plate was centrifuged for 1 minute at 1000 rpm and then incubated overnight at room temperature. The plate was read on an Envision plate reader using the HTRF protocol. The percentage of inhibition of AKT phosphorylation was calculated using the following formula: % Inhibition=100×(pAKTHC−pAKTSample)/(pAKTHC−pAKTLC)), where pAKTHC is obtained from cells treated with 0.1% DMSO only; PAKTLC is obtained from cells treated with 10 uM Alpelisib. The IC50 (concentration achieving 50% inhibition of pAKT) is calculated by fitting the Curve using XIfit (v5.3.1.3), equation 201: Y=Bottom+(Top−Bottom)/(1+10^((LogIC50−X)*HillSlope)).

[4] = tested on: phosphorylation of AKT (pAKT) in SKBR3 cells express WT PI3Ka; assay: In vitro cell pAKT (Ser473) HTRF, SKBR3 cells; conditions: cellular pAKT
Description: as §3, §4

| Structure (SMILES) | EC50 [1] [µM] | EC50 ([2]; 72 hours) [µM] | IC50 [3] [µM] | IC50 ([4]; 6 hours) [µM] | EC50 ([2]; Homo sapiens, SK-BR-3, 72 h) [µM] | IC50 ([4]; Homo sapiens, SK-BR-3, 6 h) [µM] | IC50 ([3]; Homo sapiens, T47D, 6 h) [µM] |
| --- | --- | --- | --- | --- | --- | --- | --- |
| Cc1cc(C(C)Nc2ccccc2C(=O)O)c2cc(N3Cc4cccnc4C3)n(C)c(=O)c2c1 (single isomer, unassigned) [Example 19, 2-((1-(3-(5,7-dihydro-6H-pyrrolo[3,4-b]pyridin-6-yl)-2,7-dimethyl-1-oxo-1,2-dihydroisoquinolin-5-yl)ethyl)amino)benzoic acid] | 0.001 to 0.5 | 2 to 15 | 0.001 to 0.5 | > 15 | – | – | – |
| Cc1cc(C(C)Nc2ccccc2C(=O)O)c2cc(-c3ccc(C)nc3)n(C)c(=O)c2c1 (single isomer, unassigned) [Example 20, 2-((1-(2,7-dimethyl-3-(6-methylpyridin-3-yl)-1-oxo-1,2-dihydroisoquinolin-5-yl)ethyl)amino)benzoic acid] | 2 to 15 | – | > 15 | – | > 15 | > 15 | – |
| Cc1cc(C(C)Nc2ccccc2C(=O)O)c2cc(-c3ccc(C)nc3)n(C)c(=O)c2c1 (single isomer, unassigned) [Example 21, 2-((1-(2,7-dimethyl-3-(6-methylpyridin-3-yl)-1-oxo-1,2-dihydroisoquinolin-5-yl)ethyl)amino)benzoic acid] | 0.001 to 0.5 | > 15 | 0.001 to 0.5 | > 15 | – | – | – |
| Cc1cc(C(C)Nc2ccc(Cl)nc2C(=O)O)c2cc(C3=CCC(C)(C)CC3)n(C)c(=O)c2c1 (single isomer, unassigned) [Example 22, 6-chloro-3-((1-(3-(4,4-dimethylcyclohex-1-en-1-yl)-2,7-dimethyl-1-oxo-1,2-dihydroisoquinolin-5-yl)ethyl)amino)picolinic acid] | 2 to 15 | – | 2 to 15 | – | 2 to 15 | > 15 | – |
| Cc1cc(C(C)Nc2ccccc2C(=O)O)c2cc(N3C[C@H]4CN(CC(F)(F)F)C[C@H]4C3)n(C)c(=O)c2c1 (single isomer, unassigned) [Example 30] | 2 to 15 | – | > 15 | – | 2 to 15 | > 15 | – |
| Cc1cc(C(C)Nc2ccccc2C(=O)O)c2cc(N3C[C@H]4CN(CC(F)(F)F)C[C@H]4C3)n(C)c(=O)c2c1 (single isomer, unassigned) [Example 31] | 0.001 to 0.5 | 2 to 15 | 0.001 to 0.5 | > 15 | – | – | – |
| Cc1cc(C(C)Nc2ccccc2C(=O)O)c2cc(N3CCN(C(=O)CC(C)C)CC3)n(C)c(=O)c2c1 (single isomer, unassigned) [Example 32, 2-((1-(2,7-dimethyl-3-(4-(3-methylbutanoyl)piperazin-1-yl)-1-oxo-1,2-dihydroisoquinolin-5-yl)ethyl)amino)benzoic acid] | > 15 | – | > 15 | – | > 15 | > 15 | – |
| Cc1cc(C(C)Nc2ccccc2C(=O)O)c2cc(N3CCN(C(=O)CC(C)C)CC3)n(C)c(=O)c2c1 (single isomer, unassigned) [Example 33, 2-((1-(2,7-dimethyl-3-(4-(3-methylbutanoyl)piperazin-1-yl)-1-oxo-1,2-dihydroisoquinolin-5-yl)ethyl)amino)benzoic acid] | 0.001 to 0.5 | > 15 | 0.001 to 0.5 | > 15 | – | – | – |
| Cc1cc(C(C)Nc2ccccc2C(=O)O)c2cc(C#Cc3ccccc3)n(C)c(=O)c2c1 (single isomer, unassigned) [Example 35, 2-((1-(2,7-dimethyl-1-oxo-3-(phenylethynyl)-1,2-dihydroisoquinolin-5-yl)ethyl)amino)benzoic acid] | > 15 | – | > 15 | – | > 15 | > 15 | – |
| Cc1cc(C(C)Nc2ccccc2C(=O)O)c2cc(C#Cc3ccccc3)n(C)c(=O)c2c1 (single isomer, unassigned) [Example 36, 2-((1-(2,7-dimethyl-1-oxo-3-(phenylethynyl)-1,2-dihydroisoquinolin-5-yl)ethyl)amino)benzoic acid] | 0.001 to 0.5 | > 15 | 0.001 to 0.5 | > 15 | – | – | – |
| Cc1cc(C(CF)Nc2ccccc2C(=O)O)c2cc(N3CCN(CC(F)(F)F)CC3)n(C)c(=O)c2c1 (single isomer, unassigned) [Example 37, 2-((1-(2,7-dimethyl-1-oxo-3-(4-(2,2,2-trifluoroethyl)piperazin-1-yl)-1,2-dihydroisoquinolin-5-yl)-2-fluoroethyl)amino)benzoic acid] | 2 to 15 | – | 2 to 15 | – | > 15 | > 15 | – |
| Cc1cc(C(CF)Nc2ccccc2C(=O)O)c2cc(N3CCN(CC(F)(F)F)CC3)n(C)c(=O)c2c1 (single isomer, unassigned) [Example 38, 2-((1-(2,7-dimethyl-1-oxo-3-(4-(2,2,2-trifluoroethyl)piperazin-1-yl)-1,2-dihydroisoquinolin-5-yl)-2-fluoroethyl)amino)benzoic acid] | 0.001 to 0.5 | > 15 | 0.001 to 0.5 | > 15 | – | – | – |
| Cc1cc(C(C)Nc2ccccc2C(=O)O)c2cc(N3Cc4ccc(F)cc4C3)n(C)c(=O)c2c1 (single isomer, unassigned) [Example 49] | 0.001 to 0.5 | – | – | – | > 15 | > 15 | 0.001 to 0.5 |
| Cc1cc(C(C)Nc2ccccc2C(=O)O)c2cc(N3CC(c4ccccc4)C3)n(C)c(=O)c2c1 (single isomer, unassigned) [Example 76] | > 15 | – | > 15 | – | > 15 | > 15 | – |
| Cc1cc(C(C)Nc2ccccc2C(=O)O)c2cc(N3CC(c4ccccc4)C3)n(C)c(=O)c2c1 (single isomer, unassigned) [Example 77] | 0.5 to 2 | > 15 | 0.001 to 0.5 | > 15 | – | – | – |
| Cc1cc(C(C)Nc2ccccc2C(=O)O)c2cc(N3CC(Cl)C3)n(C)c(=O)c2c1 (single isomer, unassigned) [Example 78] | 2 to 15 | – | > 15 | – | > 15 | > 15 | – |
| Cc1cc(C(C)Nc2ccccc2C(=O)O)c2cc(N3CC(Cl)C3)n(C)c(=O)c2c1 (single isomer, unassigned) [Example 79] | 0.001 to 0.5 | > 15 | 0.001 to 0.5 | > 15 | – | – | – |
| Cc1cc(C(C)Nc2ccccc2C(=O)O)c2cc(N3CC4(C3)CC(F)(F)C4)n(C)c(=O)c2c1 (single isomer, unassigned) [Example 80] | > 15 | – | > 15 | – | > 15 | > 15 | – |
| Cc1cc(C(C)Nc2ccccc2C(=O)O)c2cc(N3CC4(C3)CC(F)(F)C4)n(C)c(=O)c2c1 (single isomer, unassigned) [Example 81] | 0.5 to 2 | > 15 | 0.001 to 0.5 | > 15 | – | – | – |
| Cc1cc(C(C)Nc2ccccc2C(=O)O)c2cc(N3CC4(CC(C(F)(F)F)C4)C3)n(C)c(=O)c2c1 (single isomer, unassigned) [Example 82] | 0.5 to 2 | – | 0.001 to 0.5 | – | > 15 | > 15 | – |
| Cc1cc(C(C)Nc2ccccc2C(=O)O)c2cc(N3CC4(CC(C(F)(F)F)C4)C3)n(C)c(=O)c2c1 (single isomer, unassigned) [Example 83] | 2 to 15 | > 15 | > 15 | > 15 | – | – | – |

Reference: patent US20260078103A1, “ISOQUINOLONES AS PI3K INHIBITORS” (OnKure, Inc., priority 2022, published 2026)
